In patent US10738028B2, “Spiro three-membered ring, spiro five-membered ring peptide deformylase inhibitor and use thereof in antibacteria and anti-tumor” (priority 2016, dated 2020):

Experiments:
Assay type in all cases: cell-based
[1] = test system: Streptococcus pneoumoniae (SPN); assay: MIC, two-fold agar dilution (CLSI), clinical isolates
How it was run: (§1)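 Samples are serially diluted two-fold in agar following CLSI guidance. Plates are then inoculated with the tested strains. The lowest inhibiting concentration is recorded as MIC.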

[2] = test system: Moraxella catarrhalis (BCA); assay: as above
How it was run: as §1

[3] = test system: methicillin-resistant Staphylococcus epidermidis (MRSE); assay: as above
How it was run: as §1

[4] = test system: methicillin-resistant Staphylococcus aureus (MRSA); assay: as above
How it was run: as §1

[5] = test system: Enterococcus faecalis (EFA); assay: as above
How it was run: as §1

[6] = test system: Enterococcus faecium (EFM); assay: as above
How it was run: as §1

[7] = test system: methicillin-sensitive Staphylococcus epidermidis (MSSE); assay: as above
How it was run: as §1

[8] = test system: Escherichia coli (including ESBLs, non-ESBLs); assay: as above
How it was run: as §1

[9] = test system: methicillin-sensitive Staphylococcus aureus (MSSA); assay: as above
How it was run: as §1

[10] = test system: HCT-116 colorectal cancer cell line; assay: CCK-8 proliferation inhibition; conditions: Homo sapiens, HCT-116, 72 h, concentration of 30 μM; 72 hours; CCK-8; read-out: HCT116 inhibition rate/%
How it was run: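 Cells seeded at 2000 cells/well, cultured overnight at 37 °C, 5% CO2, then exposed to compound (DMSO; control 1‰ DMSO) for 72 h in McCoy's 5A with 10% newborn bovine serum. Viability read with 1:10 diluted CCK-8.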

CCCC[C@H](CC(=O)NO)C(=O)N1CC2(CC2)C[C@H]1C(=O)Nc1cccnn1 [Example 48, (S)-5-((R)-2-(2-(hydroxyamino)-2-oxoethyl)hexanoyl)-N-(pyridazin-3-yl)-5-azaspiro[2.4]heptane-6-amide]
Anti-bacterial activity (MIC), strain SPN 16-2 ([1]; clinical isolate SPN 16-2): 8 µg/mL
Anti-bacterial activity (MIC), strain SPN 16-4 ([1]; clinical isolate SPN 16-4): 8 µg/mL
Anti-bacterial activity (MIC), strain BCA 14-1 ([2]; clinical isolate BCA 14-1): > 32 µg/mL
Anti-bacterial activity (MIC), strain BCA 14-4 ([2]; clinical isolate BCA 14-4): > 32 µg/mL
Anti-bacterial activity (MIC), strain BCA 14-5 ([2]; clinical isolate BCA 14-5): 8 µg/mL
Anti-bacterial activity (MIC), strain BCA 14-6 ([2]; clinical isolate BCA 14-6): > 32 µg/mL
Anti-bacterial activity (MIC), strain BCA 14-7 ([2]; clinical isolate BCA 14-7): 16 µg/mL
Anti-bacterial activity (MIC), strain BCA 14-8 ([2]; clinical isolate BCA 14-8): 16 µg/mL
Anti-bacterial activity (MIC), strain BCA 14-10 ([2]; clinical isolate BCA 14-10): > 32 µg/mL
Anti-bacterial activity (MIC), strain MRSE 15-1 ([3]; clinical isolate MRSE 15-1): 8 µg/mL
Anti-bacterial activity (MIC), strain MRSE 15-2 ([3]; clinical isolate MRSE 15-2): 8 µg/mL
Anti-bacterial activity (MIC), strain MRSE 15-3 ([3]; clinical isolate MRSE 15-3): 8 µg/mL
Anti-bacterial activity (MIC), strain MRSE 15-7 ([3]; clinical isolate MRSE 15-7): 8 µg/mL
Anti-bacterial activity (MIC), strain MRSA 15-1 ([4]; clinical isolate MRSA 15-1): 2 µg/mL
Anti-bacterial activity (MIC), strain MRSA 15-2 ([4]; clinical isolate MRSA 15-2): 8 µg/mL
Anti-bacterial activity (MIC), strain MRSA 15-3 ([4]; clinical isolate MRSA 15-3): 2 µg/mL
Anti-bacterial activity (MIC), strain MRSA 15-4 ([4]; clinical isolate MRSA 15-4): 8 µg/mL
Anti-bacterial activity (MIC), strain EFA 15-1 ([5]; clinical isolate EFA 15-1): > 32 µg/mL
Anti-bacterial activity (MIC), strain EFA 15-2 ([5]; clinical isolate EFA 15-2): > 32 µg/mL
Anti-bacterial activity (MIC), strain EFA 15-3 ([5]; clinical isolate EFA 15-3): > 32 µg/mL
Anti-bacterial activity (MIC), strain EFA 15-4 ([5]; clinical isolate EFA 15-4): > 32 µg/mL
Anti-bacterial activity (MIC), strain EFA 15-5 ([5]; clinical isolate EFA 15-5): > 32 µg/mL
Anti-bacterial activity (MIC), strain EFA 15-6 ([5]; clinical isolate EFA 15-6): > 32 µg/mL
Anti-bacterial activity (MIC), strain EFA 15-9 ([5]; clinical isolate EFA 15-9): 32 µg/mL
Anti-bacterial activity (MIC), strain EFM 15-1 ([6]; clinical isolate EFM 15-1): > 32 µg/mL
Anti-bacterial activity (MIC), strain EFM 15-2 ([6]; clinical isolate EFM 15-2): > 32 µg/mL
Anti-bacterial activity (MIC), strain EFM 15-3 ([6]; clinical isolate EFM 15-3): > 32 µg/mL
Anti-bacterial activity (MIC), strain EFM 15-4 ([6]; clinical isolate EFM 15-4): > 32 µg/mL
Anti-bacterial activity (MIC), strain EFM 15-5 ([6]; clinical isolate EFM 15-5): 1 µg/mL
Anti-bacterial activity (MIC), strain EFM 15-6 ([6]; clinical isolate EFM 15-6): 8 µg/mL
Anti-bacterial activity (MIC), strain MSSE 15-3 ([7]; clinical isolate MSSE 15-3): 8 µg/mL
Anti-bacterial activity (MIC), strain MSSE 15-4 ([7]; clinical isolate MSSE 15-4): 32 µg/mL
Anti-bacterial activity (MIC), strain MSSE 15-5 ([7]; clinical isolate MSSE 15-5): 8 µg/mL
Anti-bacterial activity (MIC), strain MSSE 15-6 ([7]; clinical isolate MSSE 15-6): 8 µg/mL
Anti-bacterial activity (MIC), strain ECO+ 15-1 ([8]; clinical isolate ECO+ 15-1): 8 µg/mL
Anti-bacterial activity (MIC), strain ECO+ 15-2 ([8]; clinical isolate ECO+ 15-2): > 32 µg/mL
Anti-bacterial activity (MIC), strain ECO+ 15-3 ([8]; clinical isolate ECO+ 15-3): 32 µg/mL
Anti-bacterial activity (MIC), strain ECO+ 15-4 ([8]; clinical isolate ECO+ 15-4): 32 µg/mL
Anti-bacterial activity (MIC), strain ECO− 15-1 ([8]; clinical isolate ECO− 15-1): > 32 µg/mL
Anti-bacterial activity (MIC), strain ECO− 15-2 ([8]; clinical isolate ECO− 15-2): > 32 µg/mL
Anti-bacterial activity (MIC), strain ECO− 15-3 ([8]; clinical isolate ECO− 15-3): > 32 µg/mL
Anti-bacterial activity (MIC), strain ECO− 15-4 ([8]; clinical isolate ECO− 15-4): > 32 µg/mL
Anti-bacterial activity (MIC), strain MSSA 15-3 ([9]; clinical isolate MSSA 15-3): 8 µg/mL
Anti-bacterial activity (MIC), strain MSSA 15-4 ([9]; clinical isolate MSSA 15-4): 8 µg/mL
Anti-bacterial activity (MIC), strain MSSA 15-5 ([9]; clinical isolate MSSA 15-5): 8 µg/mL
Anti-bacterial activity (MIC), strain MSSA 15-6 ([9]; clinical isolate MSSA 15-6): > 32 µg/mL
inhibition at 30 µM [10]: 20%
